According to patent publication US12043600B2, “Microbiocidal compounds” (SYNGENTA CROP PROTECTION AG, priority 2018, dated 2024):

Legend:
[1] = system: Puccinia recondita f. sp. tritici; assay: Puccinia recondita f. sp. tritici/Wheat/Leaf Disc Curative (Brown Rust); type: in vivo; settings: foliar, wheat leaf disc curative, compared to untreated control
Summary of the method: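 Formulated compound, diluted in water, is applied to inoculated wheat cv. Kanzler leaf segments on agar one day post-inoculation (pre-incubation dark, 19° C, 75% rh). After 6-8 days at 19° C, 75% rh and 12 h/12 h light, activity is rated as percent disease control relative to untreated segments.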

[2] = system: Plasmopara viticola; assay: whole plant or invertebrate; type: in vivo; settings: foliar, read-out: control of Plasmopara viticola
[3] = system: Blumeria graminis f. sp. tritici (Erysiphe graminis f. sp. tritici); assay: Blumeria graminis f. sp. tritici/Wheat/Leaf Disc Preventative (Powdery Mildew on Wheat); type: in vivo; settings: foliar, wheat leaf disc preventative, compared to untreated control
Summary of the method: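 Preventative leaf-disc test: percent disease control versus untreated leaf segments read 6-8 days post-application. Compound spray applied to wheat cv. Kanzler segments on agar one day before shaking infected plants over them; incubation at 20° C and 60% rh, 24 h darkness then 12 h light/12 h dark cycles.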

[4] = system: Puccinia recondita f. sp. tritici; assay: Puccinia recondita f. sp. tritici/Wheat/Leaf Disc Preventative (Brown Rust); type: in vivo; settings: foliar, 200 ppm, wheat leaf disc preventative, compared to untreated control, read-out: control of Puccinia recondita f. sp. tritici
[5] = system: Glomerella lagenarium (Colletotrichum lagenarium); assay: Glomerella lagenarium (Colletotrichum lagenarium)/Liquid Culture (Anthracnose); type: cell-based; settings: Colletotrichum orbiculare, liquid culture, compared to untreated control
[6] = system: Mycosphaerella arachidis (Cercospora arachidicola); assay: Mycosphaerella arachidis (Cercospora arachidicola)/Liquid Culture (Early Leaf Spot); type: cell-based; settings: liquid culture, compared to untreated control
Summary of the method: (§1)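 Growth inhibition read in liquid culture: spores from frozen stocks, suspended in potato dextrose broth, meet DMSO-dissolved compound placed beforehand in the plate.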

[7] = system: Phakopsora pachyrhizi; assay: Phakopsora pachyrhizi/Soybean/Preventative (Soybean Rust); type: in vivo; settings: foliar, 288 h, 200 ppm, soybean leaf disc preventative, compared to untreated control, read-out: control of Phakopsora pachyrhizi
[8] = system: Magnaporthe grisea (Pyricularia oryzae); assay: whole plant or invertebrate; type: in vivo; settings: foliar, read-out: control of Magnaporthe grisea
[9] = system: Phytophthora infestans; assay: whole plant or invertebrate; type: in vivo; settings: in Solanum lycopersicum, foliar, read-out: control of Phytophthora infestans
[10] = system: Monographella nivalis (Microdochium nivale); assay: Monographella nivalis (Microdochium nivale)/Liquid Culture (Foot Rot Cereals); type: cell-based; settings: liquid culture, compared to untreated control
Summary of the method: as §1

[11] = system: Botryotinia fuckeliana (Botrytis cinerea); assay: Botryotinia fuckeliana (Botrytis cinerea)/Liquid Culture (Gray Mould); type: cell-based; settings: liquid culture, compared to untreated control
Protocol: Conidia of the fungus from cryogenic storage are directly mixed into nutrient broth (Vogels broth). After placing a (DMSO) solution of test compound into a microtiter plate (96-well format), the nutrient broth containing the fungal spores is added.

[12] = system: Mycosphaerella graminicola (Septoria tritici); assay: Mycosphaerella graminicola (Septoria tritici)/Liquid Culture (Septoria Blotch); type: cell-based; settings: Zymoseptoria tritici; 20 ppm; liquid culture; compared to untreated control
Summary of the method: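 Results given as % disease control: test compound in DMSO was placed in wells first, then potato dextrose broth carrying cryostored fungal conidia was added.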

[13] = system: Thanatephorus cucumeris (Rhizoctonia solani); assay: Thanatephorus cucumeris (Rhizoctonia solani)/Liquid Culture (Foot Rot, Damping-Off); type: cell-based; settings: liquid culture, compared to untreated control
Protocol: Mycelia fragments of a newly grown liquid culture of the fungus are directly mixed into nutrient broth (PDB potato dextrose broth). After placing a (DMSO) solution of the test compounds into a microtiter plate (96-well format), the nutrient broth containing the fungal material is added.

[14] = system: Phaeosphaeria nodorum (Septoria nodorum); assay: Phaeosphaeria nodorum (Septoria nodorum)/Wheat/Leaf Disc Preventative (Glume Blotch); type: in vivo; settings: Parastagonospora nodorum, foliar, wheat leaf disc preventative, compared to untreated control
Summary of the method: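 Preventative test: compound spray first, then spore inoculation after 2 days on cv. Kanzler wheat leaf segments. Incubation in a climate cabinet at 20 °C and 75% rh under a 12 h light/12 h dark cycle. Activity rated as % control relative to untreated discs at 5–7 days post-application.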

[15] = system: Pyrenophora teres; assay: Pyrenophora teres/Barley/Leaf Disc Preventative (Net Blotch); type: in vivo; settings: foliar, 200 ppm, barley leaf disc preventative, compared to untreated control, read-out: control of Pyrenophora teres
Summary of the method: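 Preventative leaf-disc test: inoculation with fungal spores took place 2 days after spraying segments of barley cv. Hasso, placed on agar, with water-diluted formulated compound. Read-out is % disease control per compound.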

[16] = system: Alternaria solani; assay: Alternaria solani/Tomato/Leaf Disc (Early Blight); type: in vivo; settings: foliar, tomato leaf disc, compared to untreated control
Protocol: Tomato leaf disks cv. Baby are placed on agar in multiwell plates (24-well format) and sprayed with the formulated test compound diluted in water. The leaf disks are inoculated with a spore suspension of the fungus 2 days after application. The inoculated leaf disks are incubated at 23° C./21° C. (day/night) and 80% rh (relative humidity) under a light regime of 12/12 h (light/dark) in a climate cabinet and the activity of a compound is assessed as percent disease control compared to untreated when an appropriate level of disease damage appears on untreated check disk leaf disks (5-7 days after application).

SMILES | pest or weed control at 200 ppm [1] | pest or weed control at 200 ppm [2] | pest or weed control at 200 ppm [3] | pest or weed control at 200 ppm [4] | inhibition of growth at 20 ppm [5] | inhibition of growth at 20 ppm [6] | pest or weed control at 200 ppm [7] | pest or weed control at 200 ppm [8] | pest or weed control at 200 ppm [9] | inhibition of growth at 20 ppm [10] | inhibition of growth at 20 ppm [11] | inhibition of growth at 20 ppm [12] | inhibition of growth at 20 ppm [13] | pest or weed control at 200 ppm [14] | pest or weed control at 200 ppm [15] | melting point | pest or weed control at 200 ppm [16]
CO/C=C(\Oc1cc(C)cc(-n2ccc(C(C)C)n2)c1)C(=O)OC [Compound E-35, methyl (Z)-2-[3-(3-isopropylpyrazol-1-yl)-5-methyl-phenoxy]-3-methoxy-prop-2-enoate] | ≥ 80% | ≥ 80% | ≥ 80% | ≥ 80% | ≥ 80% | ≥ 80% | ≥ 50% | ≥ 80% | ≥ 80% | ≥ 80% | ≥ 80% | ≥ 80% | ≥ 80% |  |  |  | 
CO/C=C(\Oc1cc(-n2cc(C3CC3)cn2)ccc1C)C(=O)OC [Compound E-50, methyl (Z)-2-[5-(4-cyclopropylpyrazol-1-yl)-2-methyl-phenoxy]-3-methoxy-prop-2-enoate] |  | ≥ 80% | ≥ 80% | ≥ 80% | ≥ 80% | ≥ 80% | ≥ 50% | ≥ 80% | ≥ 80% | ≥ 80% | ≥ 80% | ≥ 80% | ≥ 80% | ≥ 80% |  |  | 
CCOc1cnn(-c2ccc(C)c(O/C(=C\OC)C(=O)OC)c2)c1 [Compound E-52, methyl (Z)-2-[5-(4-ethoxypyrazol-1-yl)-2-methyl-phenoxy]-3-methoxy-prop-2-enoate] |  | ≥ 80% |  | ≥ 80% | ≥ 80% | ≥ 80% | ≥ 50% | ≥ 80% | ≥ 80% | ≥ 80% | ≥ 80% | ≥ 80% | ≥ 80% |  |  |  | 
CO/C=C(\Oc1cc(-n2cc(SC(C)C)cn2)ccc1C)C(=O)OC [Compound E-53, methyl (Z)-2-[5-(4-isopropylsulfanylpyrazol-1-yl)-2-methyl-phenoxy]-3-methoxy-prop-2-enoate] |  | ≥ 80% |  | ≥ 80% | ≥ 80% | ≥ 80% |  | ≥ 80% | ≥ 80% | ≥ 80% | ≥ 80% | ≥ 80% | ≥ 80% | ≥ 80% |  |  | 
CO/C=C(\Oc1cc(-n2cc(C)cn2)ccc1C)C(=O)OC [Compound E-59, methyl (Z)-3-methoxy-2-[2-methyl-5-(4-methylpyrazol-1-yl)phenoxy]prop-2-enoate] |  | ≥ 80% | ≥ 80% | ≥ 80% | ≥ 80% | ≥ 80% | ≥ 50% | ≥ 80% | ≥ 80% | ≥ 80% | ≥ 80% | ≥ 80% | ≥ 80% | ≥ 80% |  |  | 
CO/C=C(\Oc1cc(-n2ccc(C3(C)CC3)n2)ccc1C)C(=O)OC [Compound E-82, methyl (Z)-3-methoxy-2-[2-methyl-5-[3-(1-methylcyclopropyl)pyra-zol-1-yl]phenoxy]prop-2-enoate] | ≥ 80% | ≥ 80% | ≥ 80% | ≥ 80% | ≥ 80% | ≥ 80% | ≥ 50% | ≥ 80% | ≥ 80% | ≥ 80% | ≥ 80% | ≥ 80% |  | ≥ 80% | ≥ 80% | 83 to 86 °C | ≥ 80%
CO/C=C(\Oc1cc(-n2ccc(Br)n2)ccc1C)C(=O)OC [Compound E-83, methyl (Z)-2-[5-(3-bromopyrazol-1-yl)-2-methyl-phenoxy]-3-methoxy-prop-2-enoate] |  | ≥ 80% | ≥ 80% | ≥ 80% | ≥ 80% | ≥ 80% |  | ≥ 80% | ≥ 80% | ≥ 80% |  | ≥ 80% |  | ≥ 80% | ≥ 80% | 106 to 110 °C | ≥ 80%
CO/C=C(\Oc1cc(-n2ncc(Br)n2)ccc1C)C(=O)OC [Compound F-1, methyl (Z)-2-[5-(4-bromotriazol-2-yl)-2-methyl-phenoxy]-3-methoxy-prop-2-enoate] | ≥ 80% | ≥ 80% | ≥ 80% | ≥ 80% | ≥ 80% | ≥ 80% |  | ≥ 80% | ≥ 80% | ≥ 80% |  | ≥ 80% |  | ≥ 80% | ≥ 80% |  | ≥ 80%
CO/C=C(\Oc1cc(-n2ncc(C3CCCC3)n2)ccc1C)C(=O)OC [Compound F-5, methyl (Z)-2-[5-(4-cyclopentyltriazol-2-yl)-2-methyl-phenoxy]-3-methoxy-prop-2-enoate] | ≥ 80% | ≥ 80% | ≥ 80% | ≥ 80% | ≥ 80% | ≥ 80% |  | ≥ 80% | ≥ 80% | ≥ 80% |  | ≥ 80% |  | ≥ 80% | ≥ 80% |  | ≥ 80%
CO/C=C(\Oc1cc(-n2ncc(C(C)=NO)n2)ccc1C)C(=O)OC [Compound F-13, methyl (Z)-2-[5-[4-(N-hydroxy-C-methyl-carbonimidoyl)triazol-2-yl]-2-methyl-phenoxy]-3-methoxy-prop-2-enoate] | ≥ 80% | ≥ 80% | ≥ 80% | ≥ 80% | ≥ 80% | ≥ 80% |  | ≥ 80% | ≥ 80% | ≥ 80% |  | ≥ 80% |  | ≥ 80% | ≥ 80% | 146 to 150 °C | ≥ 80%
